In patent US7144867B2, “Anticancer glycoside compounds” (priority 2004, dated 2006):

Test system: DLD-1 (human colon adenocarcinoma)
Test: cells
Settings: for Percent Growth (Mean ± SEM, n = 2): 72-hour
Protocol: Test Substance and Concentration. Frondoside A (CBR-24) was dissolved in 100% DMSO and then diluted with sterile distilled water to obtain initial working solutions of 10000, 1000, 100, 10, and 1 μM in 40% DMSO. A 100-fold dilution was further made in culture media to generate final assay concentration of 100, 10, 1, 0.1 and 0.01 μM in 0.4% of DMSO.
Cell Line and Culture Media. The tumor cell line DLD-1 (human colon adenocarcinoma), obtained from American Type Culture Collection (ATCC CCL-221), was incubated in 95% air-5% CO2 gas mixture at 37° C. The culture medium used was RPMI 1640 with 10% fetal bovine serum, which was supplemented with 1% Antibiotic-Antimycotic.
Evaluation of anti-proliferation for test substances. Aliquots of 100 μl of cell suspension (about 2.5×10^3 cells/well) were placed in 96-well microtiter plates in an atmosphere of 5% CO2 at 37° C. […] Thus, the final concentration of DMSO was 0.4%. The Frondoside A was evaluated for possible inhibitory effects on cell proliferation at concentrations of 100, 10, 1, 0.1 and 0.01 μM. At the end of incubation, 20 μl of 90% alamarBlue reagent was added to each well for another 6 hour incubation before detection of cell viability by fluorescent intensity. Fluorescent intensity was measured using a Spectrafluor Plus plate reader with excitation at 530 nm and emission at 590 nm.
Determination of IC50, TGI and LC50. The measured results were calculated by the following formula: PG(%)=100%×(Mean Ftest−Mean Ftime0)/(Mean Fctrl−Mean Ftime0) If (Mean Ftest−Mean Ftime0)<0, then PG (%)=100%×(Mean Ftest−Mean Ftime0)/(Mean Ftime0−Mean Fblank) Where: • PG: percent growth • Mean Ftime0=The average of 2 measured fluorescent intensities of reduced alamarBlue at the time just before exposure of cells to the test substance. • Mean Ftest=The average of 2 measured fluorescent intensities of alamarBlue after 72-hour exposure of cells to the test substance. • Mean Fctrl=The average of 2 measured fluorescent intensities of alamarBlue after 72-hour incubation without the test substance. • Mean Fblank=The average of 2 measured fluorescent intensities of alamarBlue in medium without cells after 72-hour incubation.

SMILES: COC1C(O)C(CO)OC(OC2C(O)COC(OC3C(C)OC(OC4C(OC5CCC6(C)C7CCC89C(=O)OC(C)(CCCC(C)C)C8C(OC(C)=O)CC9(C)C7=CCC6C5(C)C)OCC(OS(=O)(=O)[O-])C4O)C(OC4OCC(O)C(O)C4O)C3O)C2O)C1O.[Na+] [Frondoside A, 3-O-methyl-β-D-glucopyranosyl-(1→3)-β-D-xylopyranosyl-(1→4)-[β-D-xylopyranosyl-(1→2)]-β-D-quinovopyranosyl-(1→2)-4-O-sodium sulfate-β-D-xylopyranosyl-3-O-holost-7(8)-en-3β-ol-16β-O-acetate]
- growth inhibition of DLD-1 cells relative to the vehicle-treated control (10 μM and 100 μM (≦50% of cell proliferation)): significant growth inhibition
- Percent Growth (Mean ± SEM, n = 2) (DLD-1, 0.01 μM): 93 ± 5%
- Percent Growth (Mean ± SEM, n = 2) (DLD-1, 0.1 μM): 84 ± 11%
- Percent Growth (Mean ± SEM, n = 2) (DLD-1, 1 μM): 79 ± 5%
- Percent Growth (Mean ± SEM, n = 2) (DLD-1, 10 μM): 12 ± 0%
- Percent Growth (Mean ± SEM, n = 2) (DLD-1, 100 μM): −79 ± 5%
- TGI (Total Growth Inhibition) (DLD-1, semi-quantitative, nonlinear regression): 12 µM
- IC50 (read-out: IC50 (50% Inhibition Concentration), DLD-1, semi-quantitative, nonlinear regression): 3.6 µM
- CC50 (read-out: LC50 (50% Lethal Concentration), DLD-1, semi-quantitative, nonlinear regression): 41 µM
